Measurements as given in patent publication US20220235032A1 (GENFLEET THERAPEUTICS (SHANGHAI) INC., priority 2019, published 2022).

Each molecule was assayed on U937 cells (assay: Inhibitory activity against programmed necroptosis of U937 cells induced by TNF-α and Q-VD-Oph (CellTiter-Glo)). Details: Homo sapiens, U-937, 48 h, Celltiter-Glo survival rate.
Format: cell-based
Procedure: The U937 cell strain which was used in the following Testing Examples was derived from ATCC, No.: CRL-1593.2, batch No.: 63479999, culture medium: RPMI-1640+10% FBS.
The compound to be tested was dissolved in DMSO, and diluted with DMSO to a series of gradient concentrations. The U937 cells were inoculated in a 384-well plate at 5000/well. The compound at respective concentration was added to each of the wells, and was mixed with the cells homogeneously. Human TNF-α and Q-VD-Oph were added simultaneously to induce programmed necroptosis of the cells. The cells were placed in the incubator at 37° C. and 5% CO2 for further culture of 48 h. Celltiter-Glo reagent was used for detection. After adequate pyrolysis reaction, the chemiluminescence readout value was recorded by a microplate reader. The survival rate was calculated from the detection results using the equation as follows: SR (%)=(RLU compound−RLU blank)/(RLU high control−RLU blank)×100%. The survival rate was plotted against the final concentration of respective compound using a 4-parameter fitting to calculate the inhibitory C50 of the compound against programmed necroptosis of cells induced by TNF-α.
Molecule `NC(=O)c1ccnc(N2CC3CC(C(=O)N4N=CCC4c4cncc(F)c4)CC3C2)n1` (racemic) [Compound Z-34, 2-(5-(5-(5-fluoropyridin-3-yl)-4,5-dihydro-1H-pyrazole-1-carbonyl)hexahydrocyclopenta[c]pyrrol-2(1H)-yl)pyrimidine-4-carboxamide] has an IC50 of 380 nM.
For `COc1cc(N2CCC(C(=O)N3N=CCC3c3ccccc3)C3(CC3)C2)ncn1` (racemic) [Compound Z-40-1, (5-(6-methoxypyrimidin-4-yl)-5-aza-spiro[2.5]oct-8-yl)(5-phenyl-4,5-dihydro-1H-pyrazol-1-yl) ketone], the IC50 was 9 nM.
With `COc1nccc(N2CCC(C(=O)N3N=CCC3c3ccccc3)C3(CC3)C2)n1` (racemic) [Compound Z-41-1, (5-(2-methoxypyrimidin-4-yl)-5-aza-spiro[2.5]oct-8-yl)(5-phenyl-4,5-dihydro-1H-pyrazol-1-yl) ketone] the IC50 was 5 nM.
With `NC(=O)c1cc(N2CCC(C(=O)N3N=CCC3c3ccccc3)C3(CC3)C2)ncn1` (racemic) [Compound Z-43-2, 6-(8-(5-phenyl-4,5-dihydro-1H-pyrazole-1-carbonyl)-5-aza-spiro[2.5]oct-5-yl)pyrimidine-4-carboxamide] the IC50 was 45 nM.
`NC(=O)c1cc(N2CCC(C(=O)N3N=CCC3c3cc(F)cc(F)c3)C3(CC3)C2)ncn1` (racemic) [Compound Z-44-2, 6-(8-(5-(3,5-difluorophenyl)-4,5-dihydro-1H-pyrazole-1-carbonyl)-5-aza-spiro[2.5]oct-5-yl)pyrimidine-4-carboxamide] gave an IC50 of 22 nM.
Work on `NC(=O)c1ccnc(N2CCC(C(=O)N3N=CCC3c3cc(F)cc(F)c3)C3(CC3)C2)n1` (racemic) [Compound Z-46-1, 2-(8-(5-(3,5-difluorophenyl)-4,5-dihydro-1H-pyrazole-1-carbonyl)-5-aza-spiro[2.5]oct-5-yl)pyrimidine-4-carboxamide] yielded an IC50 of 4 nM.
With `NC(=O)c1cc(N2CCC(C(=O)N3N=CCC3c3cncc(F)c3)C3(CC3)C2)ncn1` (racemic) [Compound Z-49-1, 6-(8-(5-(5-fluoropyridin-3-yl)-4,5-dihydro-1H-pyrazole-1-carbonyl)-5-aza-spiro[2.5]oct-5-yl)pyrimidine-4-carboxamide] the IC50 was 279 nM.
Molecule `N#Cc1cc(N2CCC(C(=O)N3N=CCC3c3ccccc3)C3(CC3)C2)ncn1` (racemic) [Compound Z-60-2, 6-(8-(5-phenyl-4,5-dihydro-1H-pyrazole-1-carbonyl)-5-aza-spiro[2.5]oct-5-yl)pyrimidine-4-carbonitrile] has an IC50 of 7 nM.
`NC(=O)c1cc(N2CCC(C(=O)N3N=CCC3c3cc(F)cc(F)c3)CC23CC3)ncn1` (racemic) [Compound Z-64-a, 6-(7-(5-(3,5-difluorophenyl)-4,5-dihydro-1H-pyrazole-1-carbonyl)-4-aza-spiro[2.5]oct-4-yl)pyrimidine-4-carboxamide] gave an IC50 of 10 nM.
For `CN(C)C(=O)c1cc(N2CC[C@H](C(=O)N3N=CC[C@H]3c3cc(F)cc(F)c3)CC23CC3)ncn1` (racemic) [Compound Z-69, 6-((S)-7-((S)-5-(3,5-difluorophenyl)-4,5-dihydro-1H-pyrazole-1-carbonyl)-4-aza-spiro[2.5]oct-4-yl)-N,N-dimethylpyrimidine-4-carboxamide], the IC50 was 127 nM.
For `NC(=O)c1ccnc(N2C[C@H]3C[C@H](C(=O)N4N=CC[C@@H]4c4cc(F)ccc4F)C[C@H]3C2)n1` (single isomer, unassigned) [Compound Z-22-2], the IC50 was 48 nM.
For `N#Cc1cc(N2CC[C@@H](C(=O)N3N=CC[C@@H]3c3cncc(F)c3)CC23CC3)ncn1` (single isomer, unassigned) [Compound Z-65-4], the IC50 was 14 nM.
With `Nc1nc(N2CC3CC(C(=O)N4N=CCC4c4ccccc4)CC3C2)ncc1F` (centres unmarked) [Compound Z-14, (2-(4-amino-5-fluoropyrimidin-2-yl)octahydrocyclopenta[c]pyrrol-5-yl)(5-phenyl-4,5-dihydro-1H-pyrazol-1-yl) ketone] the IC50 was 165 nM.
Molecule `NC(=O)c1cc(N2CC3CC(C(=O)N4N=CCC4c4cc(F)cc(F)c4)CC3C2)ncn1` (centres unmarked) [Compound Z-17, 6-(5-(5-(3,5-difluorophenyl)-4,5-dihydro-1H-pyrazole-1-carbonyl)hexahydrocyclopenta[c]pyrrol-2(1H)-yl)pyrimidine-4-carboxamide] has an IC50 of 248 nM.
Work on `NC(=O)c1ccnc(N2CC3CC(C(=O)N4N=CCC4c4cc(F)cc(F)c4)CC3C2)n1` (centres unmarked) [Compound Z-18, 2-(5-(5-(3,5-difluorophenyl)-4,5-dihydro-1H-pyrazole-1-carbonyl)hexahydrocyclopenta [c]pyrrol-2(1H)-yl)pyrimidine-4-carboxamide] yielded an IC50 of 94 nM.

Same assay, conditions: human TNF-α + Q-VD-Oph induced necroptosis, 48 h, Celltiter-Glo survival rate
`N#Cc1cc(N2CCC(C(=O)N3CCC(c4cc(F)cc(F)c4)=N3)C3(CC3)C2)ncn1` (racemic) [Compound Z-25, 6-(8-(3-(3,5-difluorophenyl)-4,5-dihydro-1H-pyrazole-1-carbonyl)-5-aza-spiro[2.5]oct-5-yl)pyrimidine-4-carbonitrile] showed an IC50 of 4 nM.
`N#Cc1cc(N2CCC(C(=O)N3CCC(c4cc(F)cc(F)c4)=N3)C3(CC3)C2)ncn1` (racemic) [Compound Z-26, 6-(8-(3-(3,5-difluorophenyl)-4,5-dihydro-1H-pyrazole-1-carbonyl)-5-aza-spiro[2.5]oct-5-yl)pyrimidine-4-carbonitrile] gave an IC50 of 244 nM.
In the case of `N#Cc1cc(N2CCC(C(=O)N3N=CCC3c3cncc(F)c3)C3(CC3)C2)ncn1` (racemic) [Compound Z-48-1, 6-(8-(5-(5-fluoropyridin-3-yl)-4,5-dihydro-1H-pyrazole-1-carbonyl)-5-aza-spiro[2.5]oct-5-yl)pyrimidine-4-carbonitrile], the IC50 is reported as 30 nM.
`N#Cc1cc(N2CCC(C(=O)N3N=CCC3c3cncc(F)c3)C3(CC3)C2)ncn1` (racemic) [Compound Z-48-2, 6-(8-(5-(5-fluoropyridin-3-yl)-4,5-dihydro-1H-pyrazole-1-carbonyl)-5-aza-spiro[2.5]oct-5-yl)pyrimidine-4-carbonitrile] gave an IC50 of 361 nM.
Work on `N#Cc1cc(N2CCC(C(=O)N3N=CCC3c3cc(F)ccc3F)C3(CC3)C2)ncn1` (racemic) [Compound Z-52-1, 6-(8-(5-(2,5-difluorophenyl)-4,5-dihydro-1H-pyrazole-1-carbonyl)-5-aza-spiro[2.5]oct-5-yl)pyrimidine-4-carbonitrile] yielded an IC50 of 4 nM.
In the case of `N#Cc1cc(N2CCC(C(=O)N3N=CCC3c3cc(F)ccc3F)C3(CC3)C2)ncn1` (racemic) [Compound Z-52-2, 6-(8-(5-(2,5-difluorophenyl)-4,5-dihydro-1H-pyrazole-1-carbonyl)-5-aza-spiro[2.5]oct-5-yl)pyrimidine-4-carbonitrile], the IC50 is reported as 41 nM.
Work on `NC(=O)c1cc(N2CCC(C(=O)N3N=CCC3c3cc(F)ccc3F)C3(CC3)C2)ncn1` (racemic) [Compound Z-53-1, 6-(8-(5-(2,5-difluorophenyl)-4,5-dihydro-1H-pyrazole-1-carbonyl)-5-aza-spiro[2.5]oct-5-yl)pyrimidine-4-carboxamide] yielded an IC50 of 26 nM.
`NC(=O)c1cc(N2CCC(C(=O)N3N=CCC3c3cc(F)ccc3F)C3(CC3)C2)ncn1` (racemic) [Compound Z-53-2, 6-(8-(5-(2,5-difluorophenyl)-4,5-dihydro-1H-pyrazole-1-carbonyl)-5-aza-spiro[2.5]oct-5-yl)pyrimidine-4-carboxamide] was tested, and the IC50 was 331 nM.
`N#Cc1cc(N2CC3CCC(C2)C3C(=O)N2N=CCC2c2ccccc2)ncn1` (single isomer, unassigned) [Compound Z-2, 6-(8-(5-phenyl-4,5-dihydro-1H-pyrazole-1-carbonyl)-3-azabicyclo[3.2.1]oct-3-yl)pyrimidine-4-carbonitrile] was tested, and the IC50 was 156 nM.
`N#Cc1cc(N2CC3CCC(C2)C3C(=O)N2N=CCC2c2ccccc2)ncn1` (single isomer, unassigned) [Compound Z-3, 6-(8-(5-phenyl-4,5-dihydro-1H-pyrazole-1-carbonyl)-3-azabicyclo[3.2.1]oct-3-yl)pyrimidine-4-carbonitrile] showed an IC50 of 322 nM.
`NC(=O)c1ccnc(N2C[C@@H]3CC(C(=O)N4N=CC[C@@H]4c4cc(F)cc(F)c4)C[C@H]3C2)n1` (single isomer, unassigned) [Compound Z-18-4] was tested, and the IC50 was 62 nM.
`Nc1nc(N2C[C@H]3C[C@@H](C(=O)N4N=CC[C@@H]4c4cc(F)cc(F)c4)C[C@H]3C2)ncc1F` (single isomer, unassigned) [Compound Z-23-4] showed an IC50 of 41 nM.
Molecule `N#Cc1ccnc(N2C[C@H]3C[C@@H](C(=O)N4N=CC[C@@H]4c4cc(F)cc(F)c4)C[C@H]3C2)n1` (single isomer, unassigned) [Compound Z-32-4] has an IC50 of 61 nM.
For `COc1nccc(N2C[C@H]3C[C@H](C(=O)N4N=CC[C@@H]4c4ccccc4)C[C@H]3C2)n1` (single isomer, unassigned) [Compound Z-37-2], the IC50 was 22 nM.
With `N#Cc1cc(N2C[C@H]3C[C@H](C(=O)N4N=CC[C@@H]4c4cc(F)cc(F)c4)C[C@H]3C2)ncn1` (single isomer, unassigned) [Compound Z-38-2] the IC50 was 27 nM.
`N#Cc1cc(N2C[C@H]3C[C@@H](C(=O)N4N=CC[C@@H]4c4cc(F)cc(F)c4)C[C@H]3C2)ncn1` (single isomer, unassigned) [Compound Z-38-4] was tested, and the IC50 was 82 nM.
`Nc1nc(N2C[C@H]3C[C@@H](C(=O)N4N=CC[C@@H]4c4ccccc4)C[C@H]3C2)ncc1F` (single isomer, unassigned) [Compound Z-39-4] gave an IC50 of 88 nM.
